Source: patent US8822433B2, “Complex combining an organic silicon derivative with hyaluronic and acid calibrated fragments, for preventive and repairing action of cutaneous damages” (Exsymol S.A.M., priority 2008, dated 2014)

Legend:
IL1α = test: ELISA dosage of pro-inflammatory interleukin IL1 in RHE culture supernatant (test 2); format: cell-based, human; conditions: for IL1α quantity: RHE supernatant after 24 hours of treatment
Description: (§1) As purely an indication, the invention is hereafter illustrated by the following tests above described in the specification (tests 1 to 3), and a comparative study (test 4). In tests 1, 2 and 4, the experimental studies have been carried out on a reconstructed human epidermis model (RHE, supplier: SkinEthic®) whose interest is a strong homology with human epidermis.
(§2) The culture of RHE consisted in placing them in a “MCDB 153” growth medium (supplier : SkinEthic®) containing […] of insulin, 1.5 mM of CaCl2 and […] of gentamycine, for 24 hours at 37° C. and 5% CO2.
(§3) The culture of RHE is identical to the one of the herebefore test 1. The dosage of the IL1 and IL8 pro-inflammatory interleukines is achieved on a supernatant resulting from culture medium after 24 hours of treatment, with the help of ELISA dosage kits (R&D System Quantikine Immunoassay, D800C, DTA00C and DLA50), and for identical configurations to those of the above test 1.

[1] = tested on: reconstructed human epidermis model (RHE) keratinocytes; test: Ki67 immunotracking of cell proliferation on reconstructed human epidermis (tests 1 and 4); format: cell-based; conditions: for % cells expressing Ki67/number of total cells (% in relation to the control): vs PBS control
Description: as §1, §2
The observation of cellular proliferation is achieved with the immunotracking technique (Gerdes and al., Int. J. Cancer (1983), vol. 31, pp. 13-20) by using the “Ki67” cell proliferation tracer, for the three following configurations (after a 100 1 twice-daily deposit on RHE): • case 1: PBS buffer solution (control) • case 2: HA fragments 150-600 kDa (concentrations 2 and 5%) • case 3: MSH complex (concentrations 2 and 5%)
Identically to the here-above test 1, keratinocytes' cellular proliferation is observed on reconstructed human epidermis RHE (with the immunotracking technique) for: • the MSH complex according to the invention (based on 150-600 kDa HA fragments) • the dimethylsilanediol hyaluronate marketed by the applicant under the “D.S.H. CN®” brand mark. • D.S.H. CN® is an organo-silicon product resulting from the combination of dimethylsilanediol with hyaluronic acid of high molecular weight (1500 to 2200 kDa HA fragments).

bovine hyaluronidases = test: Deterioration kinetic with hyaluronidases, agarose gel electrophoresis (test 3); format: in vitro ADME; conditions: 5, 15 and 30 min reaction at 37° C.; compared to fragmented HA non combined
Description: The experimental study consisted in measuring the deterioration kinetic of the MSH complex according to the invention submitted in vitro to bovine hyaluronidases, by electrophoresis on agarose gel. 10 1 of 1 mg/ml hyaluronidases are mixed to 50 1 of complex in a PBS buffer solution during 30 minutes at 37° C.
Successively at 5, 15 and 30 minutes, 10 1 of reaction mixture are taken, then heated at 95° C. in order to stop the enzymatic reaction. These 10 1 are then deposited on an agarose gel and a suitable stain (Stains all®) is used for the electrophoresis disclosure.

IL8 = test: ELISA dosage of pro-inflammatory interleukin IL8 in RHE culture supernatant (test 2); format: cell-based, human; conditions: for IL8 quantity: RHE supernatant after 24 hours of treatment
Description: as §1, §2, §3

Substance: monomethylsilanetriol combined with one or several hyaluronic acid fragments of molecular weight between 150 and 600 kDa [MSH complex]
- induction of pro-inflammatory cytokines (IL1α; RHE, 24 hours, compared with control, IL1 and IL8): No significant induction
- IL1α quantity (IL1α; concentration 2.5%): 3.5 (±1.8) pg/ml
- IL1α quantity (IL1α; concentration 5%): 3.4 (±0.8) pg/ml
- cytostimulation ([1]; compared to non combined fragmented HA): potentiated cytostimulation
- % cells expressing Ki67/number of total cells (% in relation to the control) ([1]; concentration 2.5%, twice-daily deposit, three independent experiments): +14 (±1.0) %
- % cells expressing Ki67/number of total cells (% in relation to the control) ([1]; concentration 5%, twice-daily deposit, three independent experiments): +63 (±0.5) %
- % cells expressing Ki67/number of total cells (% in relation to the control) ([1]; test 4 (Table 4), concentration 5%): +69.5 (±3.1) %
- distribution of HA with a high molecular weight after hyaluronidase treatment (bovine hyaluronidases): more important distribution of HA with a high molecular weight
- IL8 quantity (IL8; concentration 2.5%): 20.1 (±7.2) pg/ml
- IL8 quantity (IL8; concentration 5%): 34.8 (±13.7) pg/ml
- IL8 type-interleukines' rate (IL8; in relation to the control and to the non combined HA fragment): reduction
